The data set can be described thus: recombinant UMI read abundance after kanamycin selection (control-corrected) (log10(CPM+1)); higher = more efficient recombination; extreme values may be limits of the assay; sequences stand for … in AGTGCAGAGAAAATCGGCCAGTTTTCTCTGCCTGCAGTCCGCATGCCGTGGGACCCCTTGGGTTCTAACCTGTTGCCTAGATTTATGCAGCGGACTGCCTTTCTCCCAAAGTGATAAACCGG…AGGTTGGTTTCACT; site = the 11-nt donor. The method in brief: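 Each donor and donor-binding-loop pair was tracked by a 12-nt UMI on a plasmid carrying a promoterless kanamycin gene. With a second plasmid supplying a fixed target and T7-inducible IS621 bridge recombinase, the pool was plated in Escherichia coli on IPTG (0.07 mM) plus kanamycin or unselected. Sequencing of recombinant UMIs across the donor–target junction gave counts expressed as log10(CPM+1) after replicate averaging and control-derived scaling.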
In the case of “ATGTACGCATGGACCGGTTTTCCCGGTAATCCGTATTTGGC (site ATGTAAGCTGC)”, the “recombinant UMI read abundance (log10)” value was 1.81.
Then “ATGTACGCATGGACCGGTTTTCCCGGTAATCCGTATTTGGC (site ATGTACGCTGC)”, with 3.06.
As for “ATGTACGCATGGACCGGTTTTCCCGGTAATCCGTATTTGGC (site ATGTAGGCTGC)”, the figure is 0.
For “ATGTACGCATGGACCGGTTTTCCCGGTAATCCGTATTTGGC (site ATGTATGCTGC)”, the “recombinant UMI read abundance (log10)” value stood at 0.
Then “ATGTACTCATGGACCGGTTTTCCCGGTAATCCGTATTTGCA (site ATGTACTCTTG)”, with 2.96.
Then “ATGTAGCCATGGACCGGTTTTCCCGGTAATCCGTATTTGGC (site ATGTAGACTGC)”, with 0; and “ATGTAGCCATGGACCGGTTTTCCCGGTAATCCGTATTTGGC (site ATGTAGCCTGC)”, with 0.669; and “ATGTAGCCATGGACCGGTTTTCCCGGTAATCCGTATTTGGC (site ATGTAGGCTGC)”, with 0.
Regarding “ATGTAGCCATGGACCGGTTTTCCCGGTAATCCGTATTTGGC (site ATGTAGTCTGC)”, the “recombinant UMI read abundance (log10)” value was 1.33.
As for “ATGTAGGCATGGACCGGTTTTCCCGGTAATCCGTATTTGGC (site AAGTAGGCTGC)”, the “recombinant UMI read abundance (log10)” value is 1.22.
Consider “ATGTAGGCATGGACCGGTTTTCCCGGTAATCCGTATTTGGC (site ACGTAGGCTGC)”, for which the “recombinant UMI read abundance (log10)” value was found to be 1.74.
Then “ATGTAGGCATGGACCGGTTTTCCCGGTAATCCGTATTTGGC (site AGGTAGGCTGC)”, with 0.332.
On to “ATGTAGGCATGGACCGGTTTTCCCGGTAATCCGTATTTGGC (site ATATAGGCTGC)”, for which the “recombinant UMI read abundance (log10)” value stood at 2.8.
For the sequence “ATGTAGGCATGGACCGGTTTTCCCGGTAATCCGTATTTGGC (site ATCTAGGCTGC)”, the “recombinant UMI read abundance (log10)” value was 0.844.
As for “ATGTAGGCATGGACCGGTTTTCCCGGTAATCCGTATTTGGC (site ATGAAGGCTGC)”, the figure is 2.35.
With “ATGTAGGCATGGACCGGTTTTCCCGGTAATCCGTATTTGGC (site ATGCAGGCTGC)”, the “recombinant UMI read abundance (log10)” value came out at 2.19.
Then “ATGTAGGCATGGACCGGTTTTCCCGGTAATCCGTATTTGGC (site ATGGAGGCTGC)”, with 0; and “ATGTAGGCATGGACCGGTTTTCCCGGTAATCCGTATTTGGC (site ATGTAAGCTGC)”, with 2.28; and “ATGTAGGCATGGACCGGTTTTCCCGGTAATCCGTATTTGGC (site ATGTACGCTGC)”, with 0.834.
Then “ATGTAGGCATGGACCGGTTTTCCCGGTAATCCGTATTTGGC (site ATGTAGACTGC)”, with 2.34; and “ATGTAGGCATGGACCGGTTTTCCCGGTAATCCGTATTTGGC (site ATGTAGCCTGC)”, with 0.604.
Consider “ATGTAGGCATGGACCGGTTTTCCCGGTAATCCGTATTTGGC (site ATGTAGGCTAC)”, for which the “recombinant UMI read abundance (log10)” value worked out at 1.17.
As for “ATGTAGGCATGGACCGGTTTTCCCGGTAATCCGTATTTGGC (site ATGTAGGCTCC)”, the figure is 0.328; as for “ATGTAGGCATGGACCGGTTTTCCCGGTAATCCGTATTTGGC (site ATGTAGGCTGA)”, 2.15; as for “ATGTAGGCATGGACCGGTTTTCCCGGTAATCCGTATTTGGC (site ATGTAGGCTGC)”, 2.4.
In the case of “ATGTAGGCATGGACCGGTTTTCCCGGTAATCCGTATTTGGC (site ATGTAGGCTGG)”, the “recombinant UMI read abundance (log10)” value was 2.41.
Take “ATGTAGGCATGGACCGGTTTTCCCGGTAATCCGTATTTGGC (site ATGTAGGCTGT)”: the “recombinant UMI read abundance (log10)” value was 2.51.
As for “ATGTAGGCATGGACCGGTTTTCCCGGTAATCCGTATTTGGC (site ATGTAGGCTTC)”, the figure is 1.15; as for “ATGTAGGCATGGACCGGTTTTCCCGGTAATCCGTATTTGGC (site ATGTAGTCTGC)”, 1.06.
As for “ATGTAGGCATGGACCGGTTTTCCCGGTAATCCGTATTTGGC (site ATGTATGCTGC)”, the figure is 0.657.
Regarding “ATGTAGGCATGGACCGGTTTTCCCGGTAATCCGTATTTGGC (site ATGTCGGCTGC)”, the “recombinant UMI read abundance (log10)” value turned out to be 0.474.
For the sequence “ATGTAGGCATGGACCGGTTTTCCCGGTAATCCGTATTTGGC (site ATGTGGGCTGC)”, the “recombinant UMI read abundance (log10)” value was determined as 0.618.
As for “ATGTAGGCATGGACCGGTTTTCCCGGTAATCCGTATTTGGC (site ATGTTGGCTGC)”, the figure is 0.568.
Then “ATGTAGGCATGGACCGGTTTTCCCGGTAATCCGTATTTGGC (site ATTTAGGCTGC)”, with 0.516; and “ATGTAGGCATGGACCGGTTTTCCCGGTAATCCGTATTTGGC (site CTGTAGGCTGC)”, with 0.572; and “ATGTAGGCATGGACCGGTTTTCCCGGTAATCCGTATTTGGC (site GTGTAGGCTGC)”, with 0.716.
As for “ATGTAGGCATGGACCGGTTTTCCCGGTAATCCGTATTTGGC (site TTGTAGGCTGC)”, the figure is 1.95.
Take “ATGTAGGCATGGACCGGTTTTCCCGGTAATCCGTATTTGGG (site ATGTAGGCTAC)”: the “recombinant UMI read abundance (log10)” value is 0.251.
Then “ATGTAGGCATGGACCGGTTTTCCCGGTAATCCGTATTTGGG (site ATGTAGGCTCC)”, with 0.167; and “ATGTAGGCATGGACCGGTTTTCCCGGTAATCCGTATTTGGG (site ATGTAGGCTGC)”, with 0.
For “ATGTAGGCATGGACCGGTTTTCCCGGTAATCCGTATTTGGG (site ATGTAGGCTTC)”, the “recombinant UMI read abundance (log10)” value was found to be 0.0205.
As for “ATGTAGGCATGGACCGGTTTTCCCGGTAATCCGTATTTGTC (site ATGTAGGCTGA)”, the figure is 2.72; as for “ATGTAGGCATGGACCGGTTTTCCCGGTAATCCGTATTTGTC (site ATGTAGGCTGC)”, 1.62.
Then “ATGTAGGCATGGACCGGTTTTCCCGGTAATCCGTATTTGTC (site ATGTAGGCTGG)”, with 2.52; and “ATGTAGGCATGGACCGGTTTTCCCGGTAATCCGTATTTGTC (site ATGTAGGCTGT)”, with 1.91; and “ATGTATACATGGACCGGTTTTCCCGGTAATCCGTATTTGCA (site ATGTATACTTG)”, with 2.39.
As for “ATGTCGACATGGACCGGTTTTCCCGGTAATCCGTATTTGCG (site ATGTCGACTCG)”, the figure is 0.954; as for “ATGTCGGCATGGACCGGTTTTCCCGGTAATCCGTATTTGGC (site ATGTAGGCTGC)”, 0.445; as for “ATGTCGGCATGGACCGGTTTTCCCGGTAATCCGTATTTGGC (site ATGTCGGCTGC)”, 2.2.
On to “ATGTCGGCATGGACCGGTTTTCCCGGTAATCCGTATTTGGC (site ATGTGGGCTGC)”, for which the “recombinant UMI read abundance (log10)” value turned out to be 0.
As for “ATGTCGGCATGGACCGGTTTTCCCGGTAATCCGTATTTGGC (site ATGTTGGCTGC)”, the figure is 0.0547.
Consider “ATGTTCACATGGACCGGTTTTCCCGGTAATCCGTATTTGGT (site ATGTTCACTAC)”, for which the “recombinant UMI read abundance (log10)” value came to 1.66.

The record behind these values is the supplement of paper PMC11208160.
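Also: IS621 bridge recombinase in Escherichia coli cells against a fixed T5 target plasmid.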
